In one series the target is T1, DβH (Homo sapiens, UniProt P09172).
T1 construct: reaction mixture (total volume 500 μl) contained: cellular homogenate (75 μg total protein); host or cells: SK-N-SH cell homogenate
T1 sequence (P09172 1-617): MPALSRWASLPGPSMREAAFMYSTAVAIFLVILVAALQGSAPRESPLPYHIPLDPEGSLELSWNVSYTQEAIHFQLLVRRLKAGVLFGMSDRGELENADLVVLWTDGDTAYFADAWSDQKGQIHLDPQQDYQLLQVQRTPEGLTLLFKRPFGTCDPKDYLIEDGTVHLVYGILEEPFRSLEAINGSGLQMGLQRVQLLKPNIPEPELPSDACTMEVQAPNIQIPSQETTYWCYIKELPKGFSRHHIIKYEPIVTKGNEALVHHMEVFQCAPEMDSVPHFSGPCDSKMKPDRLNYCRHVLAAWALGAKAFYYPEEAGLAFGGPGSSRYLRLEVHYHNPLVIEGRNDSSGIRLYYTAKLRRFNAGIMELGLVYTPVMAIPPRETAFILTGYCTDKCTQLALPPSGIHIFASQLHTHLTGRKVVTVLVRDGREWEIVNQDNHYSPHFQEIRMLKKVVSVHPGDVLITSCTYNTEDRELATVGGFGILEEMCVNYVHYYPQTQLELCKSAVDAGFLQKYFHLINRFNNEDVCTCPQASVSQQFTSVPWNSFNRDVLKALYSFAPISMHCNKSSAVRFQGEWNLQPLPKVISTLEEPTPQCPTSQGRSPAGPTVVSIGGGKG
The series can be described thus: DβH inhibition cell assay (SK-N-SH cellular homogenates, tyramine to octopamine). Type of series: biochemical. The note with it: for remaining activity at 10 µM: inhibitor 10 μM, read-out: DβH activity in % of Ctrl (10 μM); for remaining activity at 0.1 µM: read-out: DβH activity in % of Ctrl (0.1 μM); for remaining activity at 1 µM: read-out: DβH activity in % of Ctrl (1 μM).

The next series in a line: in vitro. The note with it: dog, MDCK, pH 7.4.
Where [1] appears, read: inhibitor 0.1 μM, SK-N-SH cell homogenate.
The mark [2] stands for this setting: inhibitor 1 μM, SK-N-SH cell homogenate.

Where two headings read alike, the source gives them in different places.

Consider 18 compounds from US10975083B2, “Blood-brain barrier-penetrant dopamine-β-hydroxylase inhibitors” (BIAL—PORTELA & Cᵃ, S.A., priority 2016, dated 2021).

On to `CNC(=S)N1CCC(c2ccccc2)C1` (stereo not drawn) [Example 31, N-methyl-3-phenylpyrrolidine-1-carbothioamide], for which the remaining activity at 10 µM on DβH (SK-N-SH cell homogenate) came out at 15.8%. For the same compound, the Papp A→B (commonly how fast a substance crosses the layer from the apical side) at 30 min, 50 μM in the series “in vitro” is 79.4 ×10⁻⁶ cm/s.
`CNC(=S)N1CCC(c2cc(F)cc(F)c2)C1` (stereo not drawn) [Example 32, 3-(3,5-difluorophenyl)-N-methylpyrrolidine-1-carbothioamide]: the remaining activity at 0.1 µM at DβH (setting [1]) turned out to be 57.3%. In addition, at DβH (setting [2]), the remaining activity at 1 µM was determined as 4.7%. In the series “in vitro”, this compound had a Papp A→B at 30 min, 50 μM of 100 ×10⁻⁶ cm/s.
In the same order, the values of `NC(=S)N1CC2CC2(c2cc(F)cc(F)c2)C1` (stereo not drawn) [Example 34, 1-(3,5-difluorophenyl)-3-azabicyclo[3.1.0]hexane-3-carbothioamide] are 12.3%, 0% and 63.1 ×10⁻⁶ cm/s.
In the same order, the values of `NC(=S)N1CC2CC2(c2ccc(F)cc2F)C1` (stereo not drawn) [Example 37, 1-(2,4-difluorophenyl)-3-azabicyclo[3.1.0]hexane-3-carbothioamide] are 59.7%, 2.4% and 79.4 ×10⁻⁶ cm/s.
In the same order, the values of `NC(=S)N1CC2CC2(c2cc(F)ccc2F)C1` (stereo not drawn) [Example 38, 1-(2,5-difluorophenyl)-3-azabicyclo[3.1.0]hexane-3-carbothioamide] are 3.3%, 0% and 79.4 ×10⁻⁶ cm/s.
On to `CNC(=S)N1CC(c2cc(F)cc(F)c2)CC1=O` (stereo not drawn) [Example 42, 4-(3,5-difluorophenyl)-N-methyl-2-oxopyrrolidine-1-carbothioamide], for which, at DβH (setting [2]), the remaining activity at 1 µM came out at 44.1%. The apical-to-basolateral permeability (Papp A→B) at 30 min, 50 μM in “in vitro” is 100 ×10⁻⁶ cm/s.
With `CNC(=S)N1CC2(c3cc(F)cc(F)c3)CC2C1=O` (stereo not drawn) [Example 43, 1-(3,5-Difluorophenyl)-N-methyl-4-oxo-3-azabicyclo[3.1.0]hexane-3-carbothioamide], the remaining activity at 0.1 µM on DβH (setting [1]) came out at 43.6%. Besides, at DβH (setting [2]), the remaining activity at 1 µM was found to be 0%. Also, the Papp A→B at 30 min, 50 μM in “in vitro” was 200 ×10⁻⁶ cm/s.
In the case of `S=c1[nH]cc2n1CC(c1ccccc1)C2` (stereo not drawn) [Example 49, 6-phenyl-6,7-dihydro-2H-pyrrolo[1,2-c]imidazole-3(5H)-thione], the remaining activity at 1 µM at DβH amounted to 60.6%. Besides, in the series “in vitro”, the Papp A→B at 30 min, 50 μM was 100 ×10⁻⁶ cm/s.
Take `Fc1cc(F)cc(C2Cc3c[nH]c(=S)n3C2)c1` (stereo not drawn) [Example 50, 6-(3,5-difluorophenyl)-6,7-dihydro-2H-pyrrolo[1,2-c]imidazole-3(5H)-thione]: the remaining activity at 0.1 µM at DβH (setting [1]) was found to be 89.3%. Also, the remaining activity at 1 µM at DβH (setting [2]) turned out to be 36.6%. The remaining activity at 10 µM at DβH (SK-N-SH cell homogenate) came to 6.8%. Further, the Papp A→B at 30 min, 50 μM in “in vitro” is 126 ×10⁻⁶ cm/s.
With `Fc1ccc(C2Cc3c[nH]c(=S)n3C2)c(F)c1` (stereo not drawn) [Example 51, 6-(2,4-Difluorophenyl)-6,7-dihydro-2H-pyrrolo[1,2-c]imidazole-3(5H)-thione], the remaining activity at 1 µM at DβH was determined as 54.4%. The Papp A→B at 30 min, 50 μM in the series “in vitro” was 100 ×10⁻⁶ cm/s.
For `Fc1ccc(F)c(C2Cc3c[nH]c(=S)n3C2)c1` (stereo not drawn) [Example 52, 6-(2,5-difluorophenyl)-6,7-dihydro-2H-pyrrolo[1,2-c]imidazole-3(5H)-thione], the remaining activity at 1 µM at DβH (setting [2]) turned out to be 27.3%. In the series “in vitro”, the Papp A→B at 30 min, 50 μM was 100 ×10⁻⁶ cm/s.
In the case of `Fc1cc(F)cc(C23CC2c2c[nH]c(=S)n2C3)c1` (stereo not drawn) [Example 53, 5a-(3,5-difluorophenyl)-5,5a,6,6a-tetrahydrocyclopropa[3,4]pyrrolo[1,2-c]imidazole-3(2H)-thione], at DβH, the remaining activity at 0.1 µM is 66.5% and the remaining activity at 1 µM was found to be 11.8%. The compound also showed a Papp A→B at 30 min, 50 μM in the series “in vitro” of 25.1 ×10⁻⁶ cm/s.
On to `Fc1cc(F)cc([C@]23C[C@H]2c2c[nH]c(=S)n2C3)c1` [Example 54, (5aS,6aR)-5a-(3,5-difluorophenyl)-5,5a,6,6a-tetrahydrocyclopropa[3,4]pyrrolo[1,2-c]imidazole-3(2H)-thione], for which, at DβH (setting [1]), the remaining activity at 0.1 µM turned out to be 44.3%. For the same compound, the remaining activity at 1 µM on DβH (setting [2]) is 8.2%. The compound further showed a Papp A→B at 30 min, 50 μM in “in vitro” of 25.1 ×10⁻⁶ cm/s.
In the same order, the values of `Fc1ccc(F)c(C23CC2c2c[nH]c(=S)n2C3)c1` (stereo not drawn) [Example 55, 5a-(2,5-difluorophenyl)-5,5a,6,6a-tetrahydrocyclopropa[3,4]pyrrolo[1,2-c]imidazole-3(2H)-thione] are 61%, 0.4% and 79.4 ×10⁻⁶ cm/s.
In the case of `Fc1ccc(F)c([C@]23C[C@H]2c2c[nH]c(=S)n2C3)c1` [Example 56, (5aS,6aR)-5a-(2,5-difluorophenyl)-5,5a,6,6a-tetrahydrocyclopropa[3,4]pyrrolo[1,2-c]imidazole-3(2H)-thione], the remaining activity at 0.1 µM on DβH (setting [1]) stood at 41.7%. In addition, on DβH (setting [2]), the remaining activity at 1 µM turned out to be 7.8%. The compound also gave a Papp A→B at 30 min, 50 μM in “in vitro” of 15.8 ×10⁻⁶ cm/s.
Take `Fc1ccc(F)c([C@@]23C[C@@H]2c2c[nH]c(=S)n2C3)c1` [Example 57, (5aR,6aS)-5a-(2,5-difluorophenyl)-5,5a,6,6a-tetrahydrocyclopropa[3,4]pyrrolo[1,2-c]imidazole-3(2H)-thione]: at DβH (setting [1]), the remaining activity at 0.1 µM was 97.9%. Further, the remaining activity at 1 µM at DβH (setting [2]) turned out to be 58.6%. Moreover, the remaining activity at 10 µM on DβH (SK-N-SH cell homogenate) turned out to be 9.2%. Also, the Papp A→B at 30 min, 50 μM in “in vitro” was 63.1 ×10⁻⁶ cm/s.
With `Fc1cc(F)cc([C@H]2Cc3c[nH]c(=S)n3C2)c1` [Example 58, (R)-6-(3,5-difluorophenyl)-6,7-dihydro-2H-pyrrolo[1,2-c]imidazole-3(5H)-thione], at DβH, the remaining activity at 0.1 µM stood at 106% and the remaining activity at 1 µM came out at 59.8%. Further, in the series “in vitro”, the Papp A→B at 30 min, 50 μM is 126 ×10⁻⁶ cm/s.
Take `Fc1cc(F)cc([C@@H]2Cc3c[nH]c(=S)n3C2)c1` [Example 59, (S)-6-(3,5-difluorophenyl)-6,7-dihydro-2H-pyrrolo[1,2-c]imidazole-3(5H)-thione]: at DβH (setting [1]), the remaining activity at 0.1 µM is 100%. The remaining activity at 1 µM at DβH (setting [2]) came to 27.8%. The Papp A→B at 30 min, 50 μM in “in vitro” is 251 ×10⁻⁶ cm/s.
